Experimental data from patent US12473296B2, “Perk inhibiting compounds” (HiberCell, Inc., priority 2019, dated 2025).
pIC50: −log10 of the molar value.

Experiments:
[1] = biological target: EIF2AK3 (PERK) catalytic domain (amino acids 536-1116) (Homo sapiens (Human), UniProt Q9NZJ5); test: PERK in vitro activity assay (isolated), TR-FRET kinase assay; conditions: isolated PERK enzyme, 1.5 μM ATP, GFP-eIF2a substrate; read-out: Biochemical IC50
Excerpt: PERK In Vitro Activity Assay (Isolated):
In vitro Inhibition of PERK Enzyme Activity (isolated) Recombinant human EIF2AK2 (PKR) catalytic domain (amino acids 252-551), EIF2AK3 (PERK) catalytic domain (amino acids 536-1116), GFP-eIF2a substrate, and Terbium-labelled phospho-eIF2a antibody is obtained (Invitrogen, Carlsbad, CA).
Express and purify HIS-SUMO-GCN2 catalytic domain (amino acids 584-1019) from E. coli. Perform TR-FRET kinase assays in the absence or presence of inhibitors in a reaction buffer consisting of 50 mM HEPES, pH 7.5, 10 mM MgCb, 1.0 mM EGTA, and 0.01% Brij-35, and 100-200 nM GFP-eIF2a substrate. […] Add test compound, initiate the reaction by addition of enzyme, and incubate at room temperature for 45 minutes. Stop the reaction by addition of EDTA to a final concentration of 10 mM, add Terbium-labelled phospho-eIF2a antibody at a final concentration of 2 nM, and incubate for 90 minutes. Monitor the resulting fluorescence in an EnVison® Multilabel reader (PerkinElmer, Waltham, MA). Determine TR-FRET ratios and the resulting IC50 values using a 4-parameter nonlinear logistic equation as shown: Y=(A+((B−A)/(1+((C/x)[…])))) where, Y=% specific inhibition, A=Bottom of the curve, B=Top of the curve, C=absolute IC50 (concentration causing 50% inhibition), and D=hill slope.

PERK = PERK (Homo sapiens (Human), UniProt Q9NZJ5); test: PERK cellular assay (TR-FRET, HEK293-EGFP-eIF2α cells, tunicamycin-induced ER stress); assay type: cell-based; conditions: tunicamycin 2 hours, read-out: Cellular IC50 (μM) (EIF2a)
Protocol: Stable cell lines were created in HEK293 cells using lentiviral particles harboring an expression vector for GFP-eIF2α. Cells were selected using puromycin and enriched using fluorescence activated cell sorting against GFP. HEK293-EGFP-eIF2α cells were plated at 5000 cells/well in 384-well assay plates and incubated overnight at 37° C., 5% CO2. Inhibitor compounds were added to the wells by Echo acoustic dispensing and incubated for 30 minutes at 37° C., 5% CO2 prior to induction of ER stress by addition of tunicamycin to […] for 2 hours. Cells were lysed and TR-FRET was measured in an EnVision plate reader (PerkinElmer). FRET ratio data was normalized to signal from lysates treated with DMSO vehicle control and plotted as percent inhibition against 10-point; 3-fold dilution series of inhibitors. IC50 values were calculated using 4-parameter logistical fitting in XLFit.

Sequence of EIF2AK3 (PERK) catalytic domain (amino acids 536-1116) (Q9NZJ5 536-1116): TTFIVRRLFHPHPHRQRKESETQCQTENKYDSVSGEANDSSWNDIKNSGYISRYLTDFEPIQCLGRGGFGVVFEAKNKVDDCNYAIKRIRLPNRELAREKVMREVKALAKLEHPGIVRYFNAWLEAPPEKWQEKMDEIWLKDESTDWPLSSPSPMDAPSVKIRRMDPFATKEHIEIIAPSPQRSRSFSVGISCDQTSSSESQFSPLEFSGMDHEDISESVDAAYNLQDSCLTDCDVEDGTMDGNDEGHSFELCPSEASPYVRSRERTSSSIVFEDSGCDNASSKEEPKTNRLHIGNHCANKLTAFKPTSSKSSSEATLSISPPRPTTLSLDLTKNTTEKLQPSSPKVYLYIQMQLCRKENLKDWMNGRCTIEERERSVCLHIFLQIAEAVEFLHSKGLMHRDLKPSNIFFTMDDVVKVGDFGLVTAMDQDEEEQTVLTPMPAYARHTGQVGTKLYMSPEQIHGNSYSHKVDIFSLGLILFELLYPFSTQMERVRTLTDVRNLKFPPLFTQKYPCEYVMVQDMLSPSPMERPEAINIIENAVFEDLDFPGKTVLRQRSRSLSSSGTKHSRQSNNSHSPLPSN
Sequence of PERK (Q9NZJ5 30-1116): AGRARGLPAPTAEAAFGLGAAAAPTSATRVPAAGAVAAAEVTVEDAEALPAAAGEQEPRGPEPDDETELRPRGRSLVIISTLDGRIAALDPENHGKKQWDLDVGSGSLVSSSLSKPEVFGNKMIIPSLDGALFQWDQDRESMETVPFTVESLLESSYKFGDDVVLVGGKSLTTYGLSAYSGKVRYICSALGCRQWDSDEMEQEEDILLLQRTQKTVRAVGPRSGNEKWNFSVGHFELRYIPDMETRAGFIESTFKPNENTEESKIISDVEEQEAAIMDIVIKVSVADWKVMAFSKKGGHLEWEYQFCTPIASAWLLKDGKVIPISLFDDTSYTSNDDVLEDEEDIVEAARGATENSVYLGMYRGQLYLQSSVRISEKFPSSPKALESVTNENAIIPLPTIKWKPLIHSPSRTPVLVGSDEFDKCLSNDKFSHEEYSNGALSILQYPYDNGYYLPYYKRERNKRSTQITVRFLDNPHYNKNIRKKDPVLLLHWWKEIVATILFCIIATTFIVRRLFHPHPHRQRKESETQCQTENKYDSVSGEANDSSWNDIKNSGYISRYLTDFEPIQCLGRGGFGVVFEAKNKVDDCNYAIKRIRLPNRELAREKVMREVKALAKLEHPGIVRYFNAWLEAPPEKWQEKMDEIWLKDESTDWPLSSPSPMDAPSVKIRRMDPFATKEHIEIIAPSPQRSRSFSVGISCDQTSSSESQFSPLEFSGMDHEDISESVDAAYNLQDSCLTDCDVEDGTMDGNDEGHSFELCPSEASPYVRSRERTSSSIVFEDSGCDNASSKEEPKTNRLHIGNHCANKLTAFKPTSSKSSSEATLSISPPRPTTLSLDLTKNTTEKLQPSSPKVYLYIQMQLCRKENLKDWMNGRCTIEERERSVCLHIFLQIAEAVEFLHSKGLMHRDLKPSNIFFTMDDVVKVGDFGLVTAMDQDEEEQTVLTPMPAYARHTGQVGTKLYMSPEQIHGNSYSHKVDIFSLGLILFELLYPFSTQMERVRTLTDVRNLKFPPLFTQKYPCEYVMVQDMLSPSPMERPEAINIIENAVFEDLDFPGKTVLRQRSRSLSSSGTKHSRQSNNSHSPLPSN

Row | pIC50 [1] | IC50 (PERK) | SMILES
1 | 5.70 to 6.00 | > 5 µM | Cc1cc(NC(=O)C(N)c2ccccc2)ccc1-c1cnc(N)c(C(=O)NC(C)C)c1 (stereo not shown) [Example 7, 2-amino-5-(4-(2-amino-2-phenylacetamido)-2-methylphenyl)-N-isopropylnicotinamide]
2 | 7.60 to 9.00 | 0.026 to 0.05 µM | Cc1cc(NC(=O)C(O)c2cc(F)cc(F)c2)ccc1-c1cnc(N)c(C(=O)NC(C)C)c1 (stereo not shown) [Example 8, 2-amino-5-(4-(2-(3,5-difluorophenyl)-2-hydroxyacetamido)-2-methylphenyl)-N-isopropyl nicotinamide]
3 | 7.30 to 7.59 | 0.101 to 0.25 µM | Cc1cc(NC(=O)C(O)c2cc(F)cc(F)c2)ccc1-c1cnc(N)c(C(=O)NC(C)C)c1 (stereo not shown) [Example 9, 2-amino-5-(4-(2-(3,5-difluorophenyl)-2-hydroxyacetamido)-2-methylphenyl)-N-isopropyl nicotinamide]
4 | 7.60 to 9.00 | 0.026 to 0.05 µM | Cc1cc(NC(=O)[C@H](O)c2cc(F)cc(F)c2)ccc1-c1cnc(N)c(C(=O)NC2CC2)c1 [Example 14, (R)-2-amino-N-cyclopropyl-5-(4-(2-(3,5-difluorophenyl)-2-hydroxyacetamido)-2-methylphenyl)nicotinamide]
5 | 7.30 to 7.59 | 0.251 to 0.5 µM | Cc1cc(NC(=O)C(O)c2cc(F)cc(F)c2)ccc1-c1cnc(N)c(C(=O)NC2CC2)c1 (stereo not shown) [Example 15, 2-amino-N-cyclopropyl-5-(4-(2-(3,5-difluorophenyl)-2-hydroxyacetamido)-2-methylphenyl) nicotinamide]
6 | 7.60 to 9.00 | 0.026 to 0.05 µM | Cc1cc(NC(=O)C(O)c2cc(F)cc(F)c2)ccc1-c1cnc(N)c(C(=O)NCC(C)C)c1 (stereo not shown) [Example 20, 2-amino-5-(4-(2-(3,5-difluorophenyl)-2-hydroxyacetamido)-2-methylphenyl)-N-isobutylnicotinamide]
7 | 6.60 to 7.00 | 0.251 to 0.5 µM | Cc1cc(NC(=O)C(O)c2cc(F)cc(F)c2)ccc1-c1cnc(N)c(C(=O)NCC(C)C)c1 (stereo not shown) [Example 21, 2-amino-5-(4-(2-(3,5-difluorophenyl)-2-hydroxyacetamido)-2-methylphenyl)-N-isobutylnicotinamide]
8 | 6.00 to 6.30 | 2 to 3 µM | Cc1cc(NC(=O)C(O)c2cc(F)cc(F)c2)ccc1-c1cnc(N)c(C(=O)N(C)C)c1 (stereo not shown) [Example 22, 2-amino-5-(4-(2-(3,5-difluorophenyl)-2-hydroxyacetamido)-2-methylphenyl)-N,N-dimethylnicotinamide]
9 | < 5.30 | > 5 µM | Cc1cc(NC(=O)C(O)c2cc(F)cc(F)c2)ccc1-c1cnc(N)c(C(=O)N(C)C)c1 (stereo not shown) [Example 23, 2-amino-5-(4-(2-(3,5-difluorophenyl)-2-hydroxyacetamido)-2-methylphenyl)-N,N-dimethylnicotinamide]
10 | 7.60 to 9.00 | 0.051 to 0.1 µM | Cc1cc(NC(=O)C(O)c2cc(F)cc(F)c2)ccc1-c1cnc(N)c(C(=O)NC2COC2)c1 (stereo not shown) [Example 24, 2-amino-5-(4-(2-(3,5-difluorophenyl)-2-hydroxyacetamido)-2-methylphenyl)-N-(oxetan-3-yl)nicotinamide]
11 | 7.30 to 7.59 | 0.501 to 1 µM | Cc1cc(NC(=O)C(O)c2cc(F)cc(F)c2)ccc1-c1cnc(N)c(C(=O)NC2COC2)c1 (stereo not shown) [Example 25, 2-amino-5-(4-(2-(3,5-difluorophenyl)-2-hydroxyacetamido)-2-methylphenyl)-N-(oxetan-3-yl)nicotinamide]
12 | 7.60 to 9.00 | 0.101 to 0.25 µM | Cc1cc(NC(=O)C(O)c2cc(F)cc(F)c2)ccc1-c1cnc(N)c(C(=O)NC2CC(O)C2)c1 (stereo not shown) [Example 26, 2-amino-5-(4-(2-(3,5-difluorophenyl)-2-hydroxyacetamido)-2-methylphenyl)-N-(3-hydroxycyclobutyl) nicotinamide]
13 | 7.00 to 7.29 | 1 to 2 µM | Cc1cc(NC(=O)C(O)c2cc(F)cc(F)c2)ccc1-c1cnc(N)c(C(=O)NC2CC(O)C2)c1 (stereo not shown) [Example 27, 2-amino-5-(4-(2-(3,5-difluorophenyl)-2-hydroxyacetamido)-2-methylphenyl)-N-(3-hydroxycyclobutyl) nicotinamide]
14 | 7.60 to 9.00 | 0.026 to 0.05 µM | COC1CC(NC(=O)c2cc(-c3ccc(NC(=O)C(O)c4cc(F)cc(F)c4)cc3C)cnc2N)C1 (stereo not shown) [Example 28, 2-amino-5-(4-(2-(3,5-difluorophenyl)-2-hydroxyacetamido)-2-methylphenyl)-N-(3-methoxycyclobutyl) nicotinamide]
15 | 7.30 to 7.59 | 0.251 to 0.5 µM | COC1CC(NC(=O)c2cc(-c3ccc(NC(=O)C(O)c4cc(F)cc(F)c4)cc3C)cnc2N)C1 (stereo not shown) [Example 29, 2-amino-5-(4-(2-(3,5-difluorophenyl)-2-hydroxyacetamido)-2-methylphenyl)-N-(3-methoxycyclobutyl) nicotinamide]
16 | 7.60 to 9.00 | 0.501 to 1 µM | CC(=O)N1CC(NC(=O)c2cc(-c3ccc(NC(=O)C(O)c4cc(F)cc(F)c4)cc3C)cnc2N)C1 (stereo not shown) [Example 30, N-(1-acetylazetidin-3-yl)-2-amino-5-(4-(2-(3,5-difluorophenyl)-2-hydroxyacetamido)-2-methylphenyl) nicotinamide]
17 | 7.00 to 7.29 | 3 to 4 µM | CC(=O)N1CC(NC(=O)c2cc(-c3ccc(NC(=O)C(O)c4cc(F)cc(F)c4)cc3C)cnc2N)C1 (stereo not shown) [Example 31, N-(1-acetylazetidin-3-yl)-2-amino-5-(4-(2-(3,5-difluorophenyl)-2-hydroxyacetamido)-2-methylphenyl) nicotinamide]
18 | 7.60 to 9.00 | 0.051 to 0.1 µM | CC(C)NC(=O)c1cc(-c2ccc(NC(=O)C(O)c3cc(F)cc(F)c3)cc2F)cnc1N (stereo not shown) [Example 32, 2-amino-5-(4-(2-(3,5-difluorophenyl)-2-hydroxyacetamido)-2-fluorophenyl)-N-isopropylnicotinamide]
19 | 6.60 to 7.00 | 0.251 to 0.5 µM | CC(C)NC(=O)c1cc(-c2ccc(NC(=O)C(O)c3cc(F)cc(F)c3)cc2F)cnc1N (stereo not shown) [Example 33, 2-amino-5-(4-(2-(3,5-difluorophenyl)-2-hydroxyacetamido)-2-fluorophenyl)-N-isopropylnicotinamide]
20 | 7.60 to 9.00 | 0.051 to 0.1 µM | CC(C)NC(=O)c1cc(-c2ccc(NC(=O)C(O)c3cc(F)cc(F)c3)cc2C(F)(F)F)cnc1N (stereo not shown) [Example 36, 2-amino-5-(4-(2-(3,5-difluorophenyl)-2-hydroxyacetamido)-2-(trifluoromethyl)phenyl)-N-isopropylnicotinamide]
21 | 6.60 to 7.00 | 0.251 to 0.5 µM | CC(C)NC(=O)c1cc(-c2ccc(NC(=O)C(O)c3cc(F)cc(F)c3)cc2C(F)(F)F)cnc1N (stereo not shown) [Example 37, 2-amino-5-(4-(2-(3,5-difluorophenyl)-2-hydroxyacetamido)-2-(trifluoromethyl)phenyl)-N-isopropylnicotinamide]
22 | 7.60 to 9.00 | 0.026 to 0.05 µM | Cc1cc(NC(=O)C(O)c2cc(F)cc(F)c2)ccc1-c1cnc(N)c(C(=O)NC(C)C)c1 (stereo not shown) [Example 40, 2-amino-5-(4-(2-(3,5-difluorophenyl)-2-hydroxyacetamido)-2-methylphenyl)-N-isopropylnicotinamide]
23 | 6.60 to 7.00 | > 5 µM | Cc1cc(NC(=O)C(O)c2cc(F)cc(F)c2)ccc1-c1cnc(N)c(C(=O)O)c1 (stereo not shown) [Example 41, 2-amino-5-(4-(2-(3,5-difluorophenyl)-2-hydroxyacetamido)-2-methylphenyl) nicotinic acid]
24 | 7.60 to 9.00 | 3 to 4 µM | Cc1cc(NC(=O)C(O)c2cc(F)cc(F)c2)ccc1-c1cnc(N)c(C(=O)NC2CNC2)c1 (stereo not shown) [Example 44, 2-amino-N-(azetidin-3-yl)-5-(4-(2-(3,5-difluorophenyl)-2-hydroxyacetamido)-2-methylphenyl) nicotinamide]
25 | 7.00 to 7.29 | > 5 µM | Cc1cc(NC(=O)C(O)c2cc(F)cc(F)c2)ccc1-c1cnc(N)c(C(=O)NC2CNC2)c1 (stereo not shown) [Example 45, 2-amino-N-(azetidin-3-yl)-5-(4-(2-(3,5-difluorophenyl)-2-hydroxyacetamido)-2-methylphenyl) nicotinamide]
26 | 7.60 to 9.00 | 0.501 to 1 µM | Cc1cc(NC(=O)C(O)c2cc(F)cc(F)c2)ccc1-c1cnc(N)c(C(=O)NC2CN(C)C2)c1 (stereo not shown) [Example 46, 2-amino-5-(4-(2-(3,5-difluorophenyl)-2-hydroxyacetamido)-2-methylphenyl)-N-(1-methylazetidin-3-yl)nicotinamide]
